Molecules are shown by their SMILES.

The conditions of data set [1]: cited from earlier work.
A short description of data set [2]: General well-being of the animals under the slow i.v. 2H-saline infusion protocol. It counts as in vivo, mice. The note with it: i.v. infusion of 1 ml 2H-saline at 100 μl/min. On the procedure:
(§1) Enrichment of the mice's blood with HDO (99.8%) was achieved by applying a slow i.v. infusion of I ml ^2H-saline with a rate of 100 μl/min.

The nature of data set [3]: HDO concentration in mice plasma by 2H-MRS during and post 2H-saline i.v. infusion (arterial input function). It counts as in vivo. The protocol:
as §1
Blood samples ([…]) were drawn from anesthetized mice by retro orbital sinus puncture at 7 time points, 3 mice for each time point, during and post ^2H saline infusion. Samples were collected into separate tubes containing heparin (50 units/ml of blood, Elkins-Sinn Inc., Cherry Hill, N.J.) and were centrifuged at room temperature. The plasma supernatant samples were separated and transferred into 5 mm NMR tubes. ^2H-MR spectra of the plasma samples were recorded at 61.4 MHz on DMX-400 spectrometer (Bruker Analytik, Germany), with a broad-band probe by applying 90° pulses with 4 s repetition time (fully relaxed conditions). Choline-(CD3)3 was added to each plasma sample as an internal reference for concentration.
The 2-compartment kinetic model related the concentration of the tracer in the tissue to tissue's perfusion, as shown by Eq. [3]. Thus, knowledge of the changing arterial tracer concentration over time, termed arterial input function, was required for the numerical solution of the model. In order to obtain qualitative ^2H-images of the tumors and to allow monitoring of HDO uptake with high spatial resolution, a slow i.v. infusion of ^2H-saline, 1 ml in 10 min. was applied. This protocol enriched the content of HDO in the plasma, which is 0.0148% at natural abundance, by 6.8% of HDO that is below toxic levels (13, 14). HDO concentration in the plasma, determined by ^2H-MRS, was monitored during and post-^2H saline infusion (FIG. 1A). During the infusion, HDO accumulated linearly with a correlation coefficient, R^2, of 0.996. The slow decay of HDO in the plasma, post-infusion, approximated linearity with R^2=0.730. Thus, a linear regression analysis of the blood input function Cp(t), was applied in parts, producing two linear functions: (i) during ^2H-saline infusion at t=t0−tinfus, Cp(t)=f(t)=at+b and (ii) post ^2H-saline infusion at t=tinfus−tend, Cp(t)=g(t)=ct+d. […] The plasma concentrations of HDO before and at the end of ^2H-saline infusion were b=0.016 mmol·ml^−1 and d=7.69 mmol·ml^−1, respectively.

The subject of data set [4] is orthotopic MCF7 human breast cancer tumors. Briefly: Dynamic 3D 2H-MRI of HDO perfusion with two-compartment model-based analysis per voxel. It counts as in vivo, CD1-NU mice.
Excerpt: A two-compartment model was custom developed for this activity to describe the kinetics of HDO in MCF7 tumors. The model, designed by Yeung et al. (41) to calculate blood brain transfer constant, is a special case of Patlak's blood-brain exchange model (31, 32). In the present work, the two compartments were assigned to the intravascular space with its respective volume fraction vp and the extravascular space, with its effective volume fraction of water ve* which is approximately 70% of the actual extravascular volume ve (ve*=0.7 ve) their respective volume fraction vp and ve* where,
The experimental kinetic data were fitted to Eq. [7] and Eq. [8] with two free parameters: K and vp, using the following substitutions: ve*=1−vp and kb=K/(1−vp). Deuterium signal intensity per pixel in arbitrary units was converted to Cv(t) in mmol/ml using a calibration solution of known deuterium concentration in saline solution ( 9.9 mmol/ml).
The method and apparatus of the present invention were tested experimentally according to the following protocol. Female CD1-NU athymic mice, 6 weeks old, were orthotopically inoculated in the mammary fat pad with MCF7 human breast cancer cells as previously described (33). Tumors were allowed to develop for 4-8 weeks, to sizes ranging between 0.2-2 cm^3 with average size 0.8±0.2 cm^3. For the MRI measurements, mice were anesthetized by exposure to 1% isoflurane (Medeva Pharmaceuticals, Inc., Rochester, N.Y.), in an O2/N2O (3:7) mixture, applied through a nose cone. Approval was obtained for all animal procedures according to the guidelines of the Committee on Animals of the Weizmann Institute of Science.
as §1
In-vivo imaging was accomplished by taking MR images and recording with a 4.7 T Biospec spectrometer (Bruker Analytik, Germany). ^2H and ^1H images were recorded at frequencies of 30.7 MHz and 200 MHz, respectively, and detected by a home-built double-tuned ^2H/^1H surface coil system, 1.5/2.5 cm in diameter. Dynamic ^2H MR images were acquired utilizing a 3-dimensional (3D) gradient echo sequence with the following parameters: echo time (TE)=3 msec, […] (TR)=60 msec, flip angle=45° achieved by an adiabatic pulse (sin/cos), 2 averages, matrix—128×64×16, 2.6 mm slice thickness, an in-plane resolution of 1×2 mm2 and acquisition time of 2.05 min. The sequential acquisition of ^2H-images began with a pre-infusion image and continued throughout ^2H-saline iv. infusion, into the tail vein of the mouse (1 ml/10 min.), and for 30 minutes thereafter. The pre-infusion images were recorded with a tube containing 9.9 mmol/ml HDO in saline solution, attached to the tumor. This served to calibrate the signal intensity to deuterium concentration in units of mmol/ml.
Image analysis was applied on the time evolution of ^2H intensity in a series of coronal images that were reconstructed from dynamic 3D images of the whole tumor acquired before, during and post ^2H-saline infusion. Analysis was performed utilizing a nonlinear least-square fitting algorithm, developed for the purpose of the invention, at a voxel resolution. The computed analysis initially converted ^2H intensity to concentration by referring to the intensity at the pre-infusion image (t=0) in the attached calibration tube that contained a solution of HDO at a concentration of 9.9 mmol/ml. […]

Consider `[2H]O[2H]` [HDO, deuterated water], for which the “HDO enrichment of body fluids considered nontoxic” value in data set [1] is recorded as “up to 10%”. Moreover, the “adverse effects on the general well-being of the animals” value in data set [2] was “no adverse effects”. The “plasma concentration of HDO before 2H-saline infusion (b)” value in data set [3] (mice plasma, before infusion) is 16000 µM. For the same compound, the “plasma concentration of HDO at the end of 2H-saline infusion (d)” value in data set [3] (mice plasma, end of i.v. infusion, 1 ml in 10 min) was determined as 7.69e+06 µM. The “rate of HDO clearance from plasma post infusion (c)” value in data set [3] (mice plasma, post 2H-saline infusion, linear regression g(t)=ct+d) is -0.07 mmol/mL/min. Further, in data set [3] (mice plasma, slow i.v. infusion of 2H-saline, 1 ml in 10 min, linear regression f(t)=at+b), the “rate of HDO accumulation in plasma during infusion (a)” value is 0.67 mmol/mL/min. Also, the “enrichment of the content of HDO in the plasma” value in data set [3] (slow i.v. infusion of 2H-saline, 1 ml in 10 min, natural abundance 0.0148%) stood at 6.8%. In data set [3] (slow i.v. infusion versus bolus injection of 200 μl), the “concentration of HDO in the plasma upon infusion with respect to bolus injection” value was about 6 times higher. Moreover, the “K, fit to the HDO perfusion kinetic model” value in data set [4] (FIG. 3 single voxel (a), R^2=0.94) stood at 0.0016 min⁻¹; in data set [4] (FIG. 3 single voxel (b), R^2=0.94) it was 0.0005 min⁻¹; in data set [4] (FIG. 3 single voxel (c), R^2=0.96) it was 0.0031 min⁻¹. Moreover, the “range of the perfusion rate per voxel” value in data set [4] (all voxels of the parametric maps, seven MCF7 tumors) is 4e-06 to 0.0039 min⁻¹. Also, the “Perfusion rate, K, Mean, Average” value in data set [4] (average of the total population of voxels in the ROIs of all tumors (n = 1278 pixels)) is reported as 1.02 ± 0.02 ·10^−3 min^−1.

Values taken from US20030211036A1, “Method and apparatus for monitoring and quantitatively evaluating tumor perfusion” (priority 2002, published 2003).
